± gives the uncertainty stated by the source.
Experiment: xn = mol fraction of the nth substance listed

CCCCCCCC[n+]1ccc(C)cc1.[Br-] + CO/N=C(\C(=O)N[C@@H]1C(=O)N2C(C(=O)[O-])=C(CSc3nc(=O)c(=O)[n-]n3C)CS[C@H]12)c1csc(N)n1.[Na+].[Na+] + O
viscosity [mPa·s], 100 kPa
Conditions	288.15 K	293.15 K	298.15 K	303.15 K	308.15 K
x2 = 0, x1 = 0.0006354	1.179 ± 0.049	1.031 ± 0.042	0.915 ± 0.038	0.817 ± 0.034	0.737 ± 0.03
x2 = 0, x1 = 0.0009577	1.196 ± 0.049	1.046 ± 0.043	0.929 ± 0.038	0.833 ± 0.034	0.749 ± 0.031
x2 = 0, x1 = 0.001283	1.217 ± 0.05	1.063 ± 0.044	0.941 ± 0.039	0.844 ± 0.035	0.76 ± 0.031
x2 = 0.0003362, x1 = 0.0009574	1.244 ± 0.051	1.089 ± 0.045	0.97 ± 0.04	0.867 ± 0.036	0.781 ± 0.032
x2 = 0.0003451, x1 = 0.001283	1.269 ± 0.052	1.108 ± 0.046	0.977 ± 0.04	0.863 ± 0.035	0.786 ± 0.032
x2 = 0.0003509, x1 = 0.0006352	1.243 ± 0.051	1.076 ± 0.044	0.949 ± 0.039	0.847 ± 0.035	0.77 ± 0.032
x2 = 0.0008524, x1 = 0.0006349	1.314 ± 0.054	1.15 ± 0.047	1.021 ± 0.042	0.909 ± 0.037	0.816 ± 0.034
x2 = 0.0008642, x1 = 0.001282	1.358 ± 0.056	1.183 ± 0.049	1.047 ± 0.043	0.937 ± 0.039	0.842 ± 0.035
x2 = 0.0008856, x1 = 0.0009569	1.333 ± 0.055	1.169 ± 0.048	1.039 ± 0.043	0.929 ± 0.038	0.828 ± 0.034
x2 = 0.001395, x1 = 0.0006346	1.411 ± 0.058	1.235 ± 0.051	1.094 ± 0.045	0.974 ± 0.04	0.873 ± 0.036
x2 = 0.0014, x1 = 0.0009564	1.452 ± 0.06	1.252 ± 0.052	1.109 ± 0.046	0.989 ± 0.041	0.885 ± 0.036
x2 = 0.00141, x1 = 0.001281	1.459 ± 0.06	1.271 ± 0.053	1.124 ± 0.046	1.004 ± 0.041	0.901 ± 0.037
x2 = 0.001941, x1 = 0.0006342	1.52 ± 0.063	1.33 ± 0.055	1.174 ± 0.048	1.046 ± 0.043	0.936 ± 0.039
x2 = 0.001965, x1 = 0.0009558	1.543 ± 0.064	1.351 ± 0.056	1.194 ± 0.049	1.064 ± 0.044	0.953 ± 0.039
x2 = 0.00197, x1 = 0.001281	1.576 ± 0.065	1.374 ± 0.057	1.209 ± 0.05	1.084 ± 0.045	0.97 ± 0.04
x2 = 0.002508, x1 = 0.0006339	1.642 ± 0.068	1.433 ± 0.059	1.264 ± 0.052	1.124 ± 0.046	1.006 ± 0.041
x2 = 0.00254, x1 = 0.0009553	1.671 ± 0.069	1.46 ± 0.06	1.287 ± 0.053	1.145 ± 0.047	1.023 ± 0.042
x2 = 0.00255, x1 = 0.00128	1.705 ± 0.071	1.487 ± 0.062	1.308 ± 0.054	1.165 ± 0.048	1.042 ± 0.043
x2 = 0.003119, x1 = 0.0006335	1.786 ± 0.074	1.558 ± 0.064	1.372 ± 0.056	1.219 ± 0.05	1.091 ± 0.045
x2 = 0.003121, x1 = 0.0009547	1.817 ± 0.075	1.587 ± 0.065	1.397 ± 0.058	1.239 ± 0.051	1.108 ± 0.046
x2 = 0.003147, x1 = 0.001279	1.858 ± 0.077	1.622 ± 0.067	1.427 ± 0.059	1.267 ± 0.052	1.133 ± 0.047
x2 = 0.003941, x1 = 0.0006329	2.01 ± 0.083	1.747 ± 0.072	1.535 ± 0.063	1.359 ± 0.056	1.212 ± 0.05
x2 = 0.003972, x1 = 0.0009539	2.048 ± 0.084	1.776 ± 0.073	1.562 ± 0.064	1.382 ± 0.057	1.233 ± 0.051
x2 = 0.003997, x1 = 0.001278	2.093 ± 0.087	1.814 ± 0.075	1.593 ± 0.066	1.411 ± 0.058	1.256 ± 0.052
x2 = 0.004812, x1 = 0.0006324	2.281 ± 0.094	1.979 ± 0.082	1.732 ± 0.071	1.528 ± 0.063	1.36 ± 0.056
x2 = 0.004853, x1 = 0.0009531	2.331 ± 0.096	2.019 ± 0.083	1.768 ± 0.073	1.557 ± 0.064	1.385 ± 0.057
x2 = 0.004881, x1 = 0.001277	2.385 ± 0.099	2.057 ± 0.085	1.804 ± 0.075	1.588 ± 0.066	1.409 ± 0.058
x2 = 0.005508, x1 = 0.000632	2.52 ± 0.1	2.189 ± 0.09	1.911 ± 0.079	1.681 ± 0.069	1.492 ± 0.061
x2 = 0.005554, x1 = 0.0009524	2.59 ± 0.11	2.238 ± 0.092	1.952 ± 0.081	1.714 ± 0.071	1.52 ± 0.063
x2 = 0.005588, x1 = 0.001276	2.64 ± 0.11	2.289 ± 0.095	1.996 ± 0.083	1.757 ± 0.073	1.559 ± 0.064

CCCCCCCCCCCC[P+](CCCC)(CCCC)CCCC.c1c[n-]nn1 + COCCOCCOCCOCCOC
100 kPa
Conditions	viscosity [mPa·s]
278.15 K, x2 = 0.305	361 ± 16
278.15 K, x2 = 0.596	73 ± 1
288.15 K, x2 = 0.123	549 ± 28
288.15 K, x2 = 0.395	124 ± 3
293.15 K, x2 = 0.123	383 ± 17
293.15 K, x2 = 0.495	59 ± 1
298.15 K, x2 = 0.305	107 ± 2

CCOCC[n+]1ccn(CCC#N)c1.O=S(=O)([N-]S(=O)(=O)C(F)(F)F)C(F)(F)F + CS(C)=O
101.3 kPa
Conditions	electrical conductivity [S/m]	viscosity [mPa·s]
293.15 K, x1 = 0.0989	0.00113 ± 4.1e-05	–
293.15 K, x1 = 0.1981	0.00401 ± 0.0002	–
293.15 K, x1 = 0.2776	0.00964 ± 0.00043	–
293.15 K, x1 = 0.597	0.0383 ± 0.001	59.7 ± 1.9
293.15 K, x1 = 0.798	–	102.3 ± 4.5
293.15 K, x1 = 0.89	0.0703 ± 0.0014	210.3 ± 8
303.15 K, x1 = 0.0989	0.00132 ± 4.7e-05	–
303.15 K, x1 = 0.1981	0.00478 ± 0.00024	–
303.15 K, x1 = 0.721	0.0577 ± 0.0017	40.7 ± 1.2
313.15 K, x1 = 0.0989	0.00155 ± 5.8e-05	–
313.15 K, x1 = 0.1981	0.00607 ± 0.00032	–
323.15 K, x1 = 0.0989	0.00196 ± 7.4e-05	3.457 ± 0.076
323.15 K, x1 = 0.1981	0.00772 ± 0.00043	4.04 ± 0.11
323.15 K, x1 = 0.3971	0.0389 ± 0.0017	9.78 ± 0.32
323.15 K, x1 = 0.5029	0.0621 ± 0.0027	13.05 ± 0.51
323.15 K, x1 = 0.721	0.108 ± 0.0034	20.71 ± 0.63

CC[n+]1ccn(C)c1.N#C[S-] + CS(C)=O
101 kPa, x1 = 0.3333
Conditions	viscosity [mPa·s]
293.15 K	3.24 ± 0.33
308.15 K	2.36 ± 0.24
328.15 K	1.57 ± 0.16

CCCCCCCCCCCCCCCC[n+]1ccccc1.[Cl-] + CS(C)=O + O
electrical conductivity [S/m], 100 kPa
Conditions	293.15 K	298.15 K	303.15 K	308.15 K
x1 = 3.75e-06, x2 = 0.01199	0.0021 ± 0.0011	0.0024 ± 0.0011	0.0024 ± 0.0012	0.0026 ± 0.0012
x1 = 3.9e-06, x2 = 0.02499	0.0019 ± 0.0011	0.002 ± 0.0011	0.0023 ± 0.0011	0.0023 ± 0.0012
x1 = 4.07e-06, x2 = 0.03911	0.0015 ± 0.0011	0.0016 ± 0.0011	0.0017 ± 0.0011	0.0019 ± 0.0011
x1 = 4.26e-06, x2 = 0.05452	0.0014 ± 0.001	0.0015 ± 0.001	0.0017 ± 0.0011	0.0019 ± 0.0011
x1 = 7.5e-06, x2 = 0.01199	0.0037 ± 0.0011	0.0042 ± 0.0012	0.0044 ± 0.0012	0.0047 ± 0.0012
x1 = 7.81e-06, x2 = 0.02499	0.0034 ± 0.0011	0.0036 ± 0.0011	0.0041 ± 0.0012	0.0044 ± 0.0012
x1 = 8.15e-06, x2 = 0.03911	–	0.0032 ± 0.0011	0.0037 ± 0.0012	0.0041 ± 0.0012
x1 = 8.52e-06, x2 = 0.05452	0.0027 ± 0.0011	0.0029 ± 0.0011	–	0.0037 ± 0.0012
x1 = 1.124e-05, x2 = 0.01199	0.0053 ± 0.0011	0.006 ± 0.0011	0.0065 ± 0.0012	0.0071 ± 0.0013
x1 = 1.171e-05, x2 = 0.02499	0.0049 ± 0.0011	0.0053 ± 0.0011	0.0059 ± 0.0012	0.0065 ± 0.0012
x1 = 1.222e-05, x2 = 0.03911	0.0045 ± 0.0011	0.0048 ± 0.0011	0.0055 ± 0.0012	0.0062 ± 0.0012
x1 = 1.278e-05, x2 = 0.05452	0.0041 ± 0.0011	0.0044 ± 0.0011	0.0049 ± 0.0011	0.0055 ± 0.0012
x1 = 1.499e-05, x2 = 0.01199	0.0071 ± 0.0011	0.0078 ± 0.0011	0.0086 ± 0.0012	0.0094 ± 0.0012
x1 = 1.562e-05, x2 = 0.02499	0.0063 ± 0.0011	0.0071 ± 0.0011	0.0077 ± 0.0012	0.0089 ± 0.0013
x1 = 1.63e-05, x2 = 0.03911	0.006 ± 0.0011	0.0065 ± 0.0011	0.0075 ± 0.0012	0.0086 ± 0.0012
x1 = 1.704e-05, x2 = 0.05452	0.0056 ± 0.0011	0.0059 ± 0.0011	0.0066 ± 0.0011	0.0075 ± 0.0012
x1 = 1.874e-05, x2 = 0.01199	0.0085 ± 0.0011	0.0095 ± 0.0011	–	–
x1 = 1.952e-05, x2 = 0.02499	0.0078 ± 0.0011	0.0088 ± 0.0011	0.0097 ± 0.0012	–
x1 = 2.037e-05, x2 = 0.03911	0.0075 ± 0.0011	0.0082 ± 0.0011	0.0095 ± 0.0012	–
x1 = 2.13e-05, x2 = 0.05452	0.0069 ± 0.0011	0.0075 ± 0.0011	0.0083 ± 0.0011	0.0094 ± 0.0012
x1 = 2.249e-05, x2 = 0.01199	0.0095 ± 0.001	–	–	–
x1 = 2.343e-05, x2 = 0.02499	0.0095 ± 0.0011	–	–	–
x1 = 2.444e-05, x2 = 0.03911	0.0091 ± 0.0011	0.0098 ± 0.0011	–	–
x1 = 2.556e-05, x2 = 0.05452	0.0082 ± 0.0011	0.009 ± 0.0011	0.01 ± 0.0011	–
x1 = 2.981e-05, x2 = 0.05452	0.0092 ± 0.001	–	–	–

CCCCCCCCCCCC[N+](C)(C)C.[Br-] + CS(C)=O + O
298 K, 101 kPa
Conditions	electrical conductivity [S/m]
x2 = 0.05957, x1 = 0.0001378	0.0321 ± 0.00051
x2 = 0.09776, x1 = 0.001524	0.181 ± 0.0029
